# In publication PMC10075506, “Synthesis and biological evaluation of flavonoid-based IP6K2 inhibitors” (Journal of Enzyme Inhibition and Medicinal Chemistry, 2023):
# Biological target: T1, recombinant human IP6K2 (Homo sapiens, UniProt Q9UHH9)
# T1 construct: made in house; host or cells: Sf9 insect cells (baculovirus, pFASTBAC1)
# T1 sequence (Q9UHH9 1-426): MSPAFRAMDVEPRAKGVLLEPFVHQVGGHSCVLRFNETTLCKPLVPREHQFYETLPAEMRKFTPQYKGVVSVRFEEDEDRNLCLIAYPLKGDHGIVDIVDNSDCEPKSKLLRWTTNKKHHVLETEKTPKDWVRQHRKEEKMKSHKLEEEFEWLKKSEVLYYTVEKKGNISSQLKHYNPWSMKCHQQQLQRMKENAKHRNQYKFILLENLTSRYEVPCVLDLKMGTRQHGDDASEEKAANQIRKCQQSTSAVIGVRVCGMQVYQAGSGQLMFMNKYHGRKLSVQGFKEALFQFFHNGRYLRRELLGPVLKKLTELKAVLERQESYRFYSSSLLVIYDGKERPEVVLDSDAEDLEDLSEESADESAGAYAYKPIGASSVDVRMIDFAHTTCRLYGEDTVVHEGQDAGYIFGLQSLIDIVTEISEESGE
# Experiment: ADP-Glo kinase assay, IP6K2
# Format: biochemical
# Conditions: IC50 compared with quercetin
# Protocol: Inhibition activity of the synthesised compounds against IP6K2 was assessed using ADP-Glo™ Kinase Assay (Promega). Kinase reaction mixtures were first shaking-incubated with individual drugs (diluted in DMSO) for pre-incubation at RT for 15 min, and then ATP was added (final 10 µM) to initiate the reaction. 20 ng of recombinant human IP6K2 protein was used per 15 µL of IP6K2 reaction mixture (50 mM Tris-HCl, pH 6.8, 10 mM MgCl2, 2.5 mM DTT, 0.02% Triton X-100, 10 µM IP6). […] Each detection set was prepared on 96-well (25 µL kinase reaction) as duplicates. Resulting enzyme activity was calculated as following; Activity (%) = ([ADPexperimental]/[ADPDMSO])×100. For IC50 estimation of compounds, kinase assay was prepared on 384-well plates (20 ng of recombinant human IP6K2 protein was used per 5 µL kinase reaction mixture) as duplicates. The final concentrations for IP6K2, IP6, and ATP were 80 nM, 10 μM, and 10 μM, respectively. […] IP6K1 and IP6K3 assays were performed by Liao et al.’s conditions.[25] The final concentrations for IP6K1, IP6, and ATP were 60 nM, 100 μM, and 1 mM, respectively. […] All statistical analyses including IC50 estimation was performed using Prism 7 or Prism 9 (Graphpad Software).
# Full-length human IP6K1, IP6K2, or IP6K3 cDNA was subcloned into pFASTBAC1 plasmid (Gibco) with an N-terminal FLAG epitope sequence, and baculovirus was generated according to the manufacturer’s instructions. Sf9 insect cells were infected with baculovirus and incubated for 72 h. The cells were resuspended in lysis buffer [20 mM Tris–HCl (pH 7.9), 500 mM NaCl, 4 mM MgCl2, 0.4 mM EDTA, 2 mM DTT, 20% glycerol, 1 mM PMSF, and protease inhibitor cocktail (Roche)] and then disrupted with a Dounce homogeniser (pestle A, 3 series of 10 strokes with 10 min interval).
row,SMILES,fold more potent IP6K2 inhibition than quercetin [fold]
1,"Cn1cc(-c2oc3cc(O)c(O)cc3c(=O)c2O)cn1 [Compound 23b, 3,6,7-Trihydroxy-2–(1-methyl-1H-pyrazol-4-yl)-4H-chromen-4-one]",2

# Same assay, conditions: IC50 experiment up to 100 µM
row,SMILES,inhibitory activity against IP6K2 (in words)
1,"Cc1ccc(-c2oc3cc(O)c(O)cc3c(=O)c2O)cc1C [Compound 20e, 2–(3,4-Dimethylphenyl)-3,6,7-trihydroxy-4H-chromen-4-one]",completely lost their inhibitory activity against IP6K2
2,"O=c1c(O)c(-c2ccc(F)c(F)c2)oc2cc(O)c(O)cc12 [Compound 20h, 2–(3,4-Difluorophenyl)-3,6,7-trihydroxy-4H-chromen-4-one]",completely lost their inhibitory activity against IP6K2

# Same assay, conditions: Table 1; IP6K2 80 nM, IP6 10 μM, ATP 10 μM; read-out: IP6K2 IC50
row,SMILES,IC50 [µM]
1,"O=C(O)c1ccc(-c2cc(=O)c3cc(O)c(O)cc3o2)cc1 [Compound 16a, 4–(6,7-Dihydroxy-4-oxo-4H-chromen-2-yl)benzoic acid]",9.07
2,"O=C(O)c1cccc(-c2cc(=O)c3cc(O)c(O)cc3o2)c1 [Compound 16b, 3–(6,7-Dihydroxy-4-oxo-4H-chromen-2-yl)benzoic acid]",1.67
3,"O=C(O)c1ccc(-c2cc(=O)c3c(O)cc(O)cc3o2)cc1 [Compound 16c, 4–(5,7-Dihydroxy-4-oxo-4H-chromen-2-yl)benzoic acid]",41.9
4,"O=C(O)c1cccc(-c2cc(=O)c3c(O)cc(O)cc3o2)c1 [Compound 16d, 3–(5,7-Dihydroxy-4-oxo-4H-chromen-2-yl)benzoic acid]",2.89

# Same assay, conditions: Table 2; duplicates, 0.017 to 100 µM, mean ± SD; IP6K2 80 nM, IP6 10 μM, ATP 10 μM; read-out: IP6K2 IC50
row,SMILES,IC50 [µM]
1,"O=c1c(O)c(-c2ccc(O)c(O)c2)oc2cc(O)c(O)cc12 [Compound 20a, 2–(3,4-Dihydroxyphenyl)-3,6,7-trihydroxy-4H-chromen-4-one]",1.77 ± 0.15
2,"O=c1c(O)c(-c2ccccc2)oc2cc(O)c(O)cc12 [Compound 20b, 3,6,7-Trihydroxy-2-phenyl-4H-chromen-4-one]",14.5 ± 0.9
3,"Cc1ccc(-c2oc3cc(O)c(O)cc3c(=O)c2O)cc1 [Compound 20c, 3,6,7-Trihydroxy-2-(p-tolyl)-4H-chromen-4-one]",> 100
4,"Cc1cccc(-c2oc3cc(O)c(O)cc3c(=O)c2O)c1 [Compound 20d, 3,6,7-Trihydroxy-2-(m-tolyl)-4H-chromen-4-one]",38.8 ± 3.8
5,"Cc1ccc(-c2oc3cc(O)c(O)cc3c(=O)c2O)cc1C [Compound 20e, 2–(3,4-Dimethylphenyl)-3,6,7-trihydroxy-4H-chromen-4-one]",> 100
6,"O=c1c(O)c(-c2ccc(F)cc2)oc2cc(O)c(O)cc12 [Compound 20f, 2–(4-Fluorophenyl)-3,6,7-trihydroxy-4H-chromen-4-one]",61.9 ± 3.8
7,"O=c1c(O)c(-c2cccc(F)c2)oc2cc(O)c(O)cc12 [Compound 20g, 2–(3-Fluorophenyl)-3,6,7-trihydroxy-4H-chromen-4-one]",38.7 ± 2.9
8,"O=c1c(O)c(-c2ccc(F)c(F)c2)oc2cc(O)c(O)cc12 [Compound 20h, 2–(3,4-Difluorophenyl)-3,6,7-trihydroxy-4H-chromen-4-one]",> 100
9,"O=c1c(O)c(-c2ccc(C(F)(F)F)cc2)oc2cc(O)c(O)cc12 [Compound 20i, 3,6,7-Trihydroxy-2–(4-(trifluoromethyl)phenyl)-4H-chromen-4-one]",> 100
10,"O=c1c(O)c(-c2cccc(C(F)(F)F)c2)oc2cc(O)c(O)cc12 [Compound 20j, 3,6,7-Trihydroxy-2–(3-(trifluoromethyl)phenyl)-4H-chromen-4-one]",> 100
11,"O=c1c(O)c(-c2ccc(Cl)cc2)oc2cc(O)c(O)cc12 [Compound 20k, 2–(4-Chlorophenyl)-3,6,7-trihydroxy-4H-chromen-4-one]",81.5 ± 3.3
12,"O=c1c(O)c(-c2cccc(Cl)c2)oc2cc(O)c(O)cc12 [Compound 20l, 2–(3-Chlorophenyl)-3,6,7-trihydroxy-4H-chromen-4-one]",73.2 ± 3.2
13,"O=c1c(O)c(-c2ccc(-c3ccccc3)cc2)oc2cc(O)c(O)cc12 [Compound 20m, 2-([1,1'-Biphenyl]-4-yl)-3,6,7-trihydroxy-4H-chromen-4-one]",> 100
14,"O=c1c(O)c(-c2ccc(Oc3ccccc3)cc2)oc2cc(O)c(O)cc12 [Compound 20n, 3,6,7-Trihydroxy-2–(4-phenoxyphenyl)-4H-chromen-4-one]",> 100
15,"O=c1c(O)c(-c2cccc(Oc3ccccc3)c2)oc2cc(O)c(O)cc12 [Compound 20o, 3,6,7-Trihydroxy-2–(3-phenoxyphenyl)-4H-chromen-4-one]",73.3 ± 12.7
16,"O=c1c(O)c(-c2ccc(O)cc2)oc2cc(O)c(O)cc12 [Compound 20p, 3,6,7-Trihydroxy-2–(4-hydroxyphenyl)-4H-chromen-4-one]",22.6 ± 0.3
17,"O=c1c(O)c(-c2cccc(O)c2)oc2cc(O)c(O)cc12 [Compound 20q, 3,6,7-Trihydroxy-2–(3-hydroxyphenyl)-4H-chromen-4-one]",2.96 ± 0.19
18,"O=C(O)c1ccc(-c2oc3cc(O)c(O)cc3c(=O)c2O)cc1 [Compound 20r, 4–(3,6,7-Trihydroxy-4-oxo-4H-chromen-2-yl)benzoic acid]",3.93 ± 0.03
19,"O=c1c(O)c(-c2ccc3ccccc3c2)oc2cc(O)c(O)cc12 [Compound 23a, 3,6,7-Trihydroxy-2-(naphthalen-2-yl)-4H-chromen-4-one]",97.8 ± 1.7
20,"Cn1cc(-c2oc3cc(O)c(O)cc3c(=O)c2O)cn1 [Compound 23b, 3,6,7-Trihydroxy-2–(1-methyl-1H-pyrazol-4-yl)-4H-chromen-4-one]",1.79 ± 0.4
21,"O=c1c(O)c(-c2cccs2)oc2cc(O)c(O)cc12 [Compound 23c, 3,6,7-Trihydroxy-2-(thiophen-2-yl)-4H-chromen-4-one]",73.3 ± 12.8

# Same assay, conditions: at concentrations of 10 and 50 µM, result in words
row,SMILES,IP6K2-inhibitory activity in screening
1,O=c1cc(-c2ccccc2)oc2cc(O)c(O)cc12 [Compound 2a],inhibit IP6K2 more strongly than the corresponding compounds
2,O=c1cc(-c2ccc(O)cc2)oc2cc(O)c(O)cc12 [Compound 2c],inhibit IP6K2 more strongly than the corresponding compounds
3,O=c1cc(-c2cccnc2)oc2cc(O)c(O)cc12 [Compound 2e],inhibit IP6K2 more strongly than the corresponding compounds

# System: not listed separately
# Experiment: in vitro
# Conditions: PAMPA
# Excerpt: Supporting Information Table 1.
# artificial membrane permeability assay (PAMPA) as described previously (reference). The apparent permeability
# (ranitidine, nadolol, hydrochlorothiazide).
# Data are mean ± S.D. (n=3).
# Reference: Oh, M.H., Lee, H.J., Jo, S.H., et al. Development of Cassette PAMPA for Permeability Screening. Biol Pharm
Papp [×10⁻⁶ cm/s],Permeability class,SMILES
< 0.18,Low,"NS(=O)(=O)c1cc2c(cc1Cl)NCNS2(=O)=O [Hydrochlorothiazide, hydrochlorothiazide]"
3.45 ± 0.158,High,"COCCc1ccc(OCC(O)CNC(C)C)cc1 (centres unmarked) [Metoprolol, metoprolol]"
0.089 ± 0.007,Low,"CC(C)(C)NCC(O)COc1cccc2c1CC(O)C(O)C2 (centres unmarked) [Nadolol, nadolol]"

SMILES,Papp [×10⁻⁶ cm/s],Permeability class
"O=C(N[C@H](CO)[C@H](O)c1ccc([N+](=O)[O-])cc1)C(Cl)Cl [Chloramphenicol, chloramphenicol]",4.67 ± 0.063,High
"CNC(=C[N+](=O)[O-])NCCSCc1ccc(CN(C)C)o1 [Ranitidine, ranitidine]",< 0.18,Low

# System: not given
# Experiment: not given
# Conditions: not given
row,melting point [°C],SMILES
1,310 to 312,O=c1cc(-c2ccc(O)cc2)oc2cc(F)ccc12
2,292 to 294,O=c1cc(-c2ccc(O)cc2)oc2ccc(F)cc12
3,272 to 274,O=c1cc(-c2ccc(O)cc2)oc2cccc(F)c12
4,302 to 304,O=c1cc(-c2ccc(O)cc2)oc2cc(F)c(F)cc12
5,272 to 274,O=C(O)c1cccc(-c2cc(=O)c3cc(F)c(F)cc3o2)c1
6,228 to 230,O=c1cc(-c2ccc(O)cc2)oc2cc(F)cc(F)c12
7,96 to 98,O=c1cc(-c2ccccc2)oc2cc(F)ccc12
8,228 to 230,COc1ccc(-c2cc(=O)c3ccc(F)cc3o2)cc1
9,160 to 162,COc1ccc(-c2cc(=O)c3cc(F)ccc3o2)cc1
10,144 to 146,O=c1cc(-c2ccccc2)oc2cccc(F)c12
11,178 to 180,COc1ccc(-c2cc(=O)c3c(F)cccc3o2)cc1
12,200 to 202,COc1ccc(-c2cc(=O)c3cc(F)c(F)cc3o2)cc1
13,256 to 258,COc1ccc(-c2cc(=O)c3c(F)cc(F)cc3o2)cc1

row,SMILES,melting point [°C]
1,"O=C(O)c1cccc(-c2cc(=O)c3cc(O)c(O)cc3o2)c1 [Compound 16b, 3–(6,7-Dihydroxy-4-oxo-4H-chromen-2-yl)benzoic acid]",416 to 418
2,"O=C(O)c1ccc(-c2cc(=O)c3c(O)cc(O)cc3o2)cc1 [Compound 16c, 4–(5,7-Dihydroxy-4-oxo-4H-chromen-2-yl)benzoic acid]",337 to 339
